From the NIST ThermoML archive (doi:10.1016/j.jct.2018.12.008)

What was measured:
[1] = 100 kPa, Liquid, Falling or rolling sphere viscometry
[2] = mn = molality of the nth substance listed, in mol/kg; details: 100 kPa, Liquid; for viscosity: Falling or rolling sphere viscometry; for electrical conductivity: Frequency=0.003 MHz, Alternating current cell with electrodes; for mass density: Vibrating tube method

O [water]
[1]
Details | viscosity [mPa·s]
288.15 K | 1.133
298.15 K | 0.89
308.15 K | 0.719

O [water] + CCCCCC[n+]1ccc(C)cc1.[Br-]
[2], m2 = 0
Details | electrical conductivity [S/m] | viscosity [mPa·s]
288.15 K | 0.000101 | 1.133
298.15 K | 0.00015 | 0.89
308.15 K | 0.000216 | 0.719

O [water] + CCCCCCCC[n+]1ccc(C)cc1.[Br-]
[2], m2 = 0
Details | electrical conductivity [S/m] | viscosity [mPa·s]
288.15 K | 0.000101 | 1.133
298.15 K | 0.00015 | 0.89
308.15 K | 0.000216 | 0.719

CCCCCC[n+]1ccc(C)cc1.[Br-] [1-hexyl-4-methylpyridinium bromide] + O
[2]
Details | electrical conductivity, 288.15 K [S/m] | electrical conductivity, 298.15 K [S/m] | electrical conductivity, 308.15 K [S/m] | mass density, 288.15 K [kg/m3] | mass density, 298.15 K [kg/m3] | mass density, 308.15 K [kg/m3] | viscosity, 288.15 K [mPa·s] | viscosity, 298.15 K [mPa·s] | viscosity, 308.15 K [mPa·s]
m1 = 0.0011 | – | – | – | 999.106 | 997.049 | 994.045 | 1.134 | 0.8886 | 0.721
m1 = 0.0018 | – | – | – | 999.113 | 997.053 | 994.051 | 1.135 | 0.8893 | 0.7216
m1 = 0.0021 | 0.0177 | 0.022 | 0.0266 | 999.119 | 997.057 | 994.054 | 1.135 | 0.889 | 0.722
m1 = 0.0036 | – | – | – | 999.129 | 997.069 | 994.067 | 1.136 | 0.8907 | 0.7231
m1 = 0.0043 | 0.0345 | 0.0431 | 0.0522 | 999.138 | 997.073 | 994.072 | 1.136 | 0.891 | 0.724
m1 = 0.0065 | 0.0512 | 0.0635 | 0.077 | 999.156 | 997.088 | 994.09 | 1.138 | 0.893 | 0.725

CCCC[n+]1ccc(C)cc1.[Br-] [1-butyl-4-methylpyridinium bromide] + O
[2]
Details | electrical conductivity, 288.15 K [S/m] | electrical conductivity, 298.15 K [S/m] | electrical conductivity, 308.15 K [S/m] | mass density, 288.15 K [kg/m3] | mass density, 298.15 K [kg/m3] | mass density, 308.15 K [kg/m3] | viscosity, 288.15 K [mPa·s] | viscosity, 298.15 K [mPa·s] | viscosity, 308.15 K [mPa·s]
m1 = 0.0011 | – | – | – | 999.126 | 997.066 | 994.057 | 1.135 | 0.8895 | 0.7239
m1 = 0.0018 | – | – | – | 999.138 | 997.081 | 994.066 | 1.137 | 0.8911 | 0.7267
m1 = 0.0021 | 0.0186 | 0.023 | 0.0278 | 999.139 | 997.093 | 994.069 | 1.137 | 0.891 | 0.727
m1 = 0.0036 | – | – | – | 999.163 | 997.131 | 994.087 | 1.14 | 0.894 | 0.7317
m1 = 0.0043 | 0.0358 | 0.0444 | 0.054 | 999.177 | 997.148 | 994.099 | 1.141 | 0.895 | 0.734
m1 = 0.0065 | 0.0536 | 0.0671 | 0.0809 | 999.217 | 997.205 | 994.13 | 1.146 | 0.9 | 0.742

CCCCCCCC[n+]1ccc(C)cc1.[Br-] [1-octyl-4-methylpyridinium bromide] + O
[2]
Details | electrical conductivity, 288.15 K [S/m] | electrical conductivity, 298.15 K [S/m] | electrical conductivity, 308.15 K [S/m] | mass density, 288.15 K [kg/m3] | mass density, 298.15 K [kg/m3] | mass density, 308.15 K [kg/m3] | viscosity, 288.15 K [mPa·s] | viscosity, 298.15 K [mPa·s] | viscosity, 308.15 K [mPa·s]
m1 = 0.0011 | – | – | – | 999.141 | 997.088 | 994.07 | 1.134 | 0.8878 | 0.7215
m1 = 0.0018 | – | – | – | 999.186 | 997.125 | 994.101 | 1.135 | 0.8882 | 0.7225
m1 = 0.0021 | 0.0176 | 0.0219 | 0.0265 | 999.196 | 997.135 | 994.115 | 1.136 | 0.891 | 0.727
m1 = 0.0036 | – | – | – | 999.266 | 997.199 | 994.174 | 1.136 | 0.8892 | 0.7255
m1 = 0.0043 | 0.0344 | 0.042 | 0.0517 | 999.3 | 997.233 | 994.42 | 1.138 | 0.892 | 0.731
m1 = 0.0065 | 0.051 | 0.0634 | 0.076 | 999.402 | 997.329 | 994.283 | 1.139 | 0.893 | 0.734

O [water] + CCCC[n+]1ccc(C)cc1.[Br-]
[2], m2 = 0
Details | electrical conductivity [S/m] | viscosity [mPa·s]
288.15 K | 0.000101 | 1.133
298.15 K | 0.00015 | 0.89
308.15 K | 0.000216 | 0.719
